{"source": "PubChem BioAssay AID330", "about": "(DTP/NCI, 2004)", "system": "P388 leukemia ip, CD2F1 mice, survival T/C", "test": "NCI In Vivo Anticancer Drug Screen. Data for tumor model P388 Leukemia (intraperitoneal) in CD2F1 (CDF1) mice", "settings": "endpoint: median survival time, higher = longer survival", "outline": "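Mice carrying the transplanted tumor received test compound or vehicle. Survival was recorded in each group, and the value is the treated-group measurement divided by that of the vehicle-treated control group.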", "key": {"[1]": {"settings": "dose: 100.0 mg/kg/injection, schedule: Q01DX009 (ip), vehicle: saline with Tween-80"}, "[2]": {"settings": "dose: 200.0 mg/kg/injection, schedule: Q01DX009 (ip), vehicle: saline with Tween-80"}}, "note": "Where “and” joins values, the source holds several entries; their conditions need not be identical. Identical values can stand only once. Toxic doses and inconclusive results are not listed.", "data": [{"smiles": "O=P(O)(O)Oc1ccc(NCCO)cc1", "values": [{"measurement": "T/C", "setting": "dose: 50.0 mg/kg/injection, schedule: Q01DX001 (ip), vehicle: saline", "result": "107 % of control"}, {"measurement": "T/C", "setting": "dose: 100.0 mg/kg/injection, schedule: Q01DX001 (ip), vehicle: saline", "result": "99 % of control"}, {"measurement": "T/C", "setting": "dose: 200.0 mg/kg/injection, schedule: Q01DX001 (ip), vehicle: saline", "result": "100 % of control"}, {"measurement": "T/C", "setting": "dose: 400.0 mg/kg/injection, schedule: Q01DX001 (ip), vehicle: saline", "result": "100 % of control"}]}, {"smiles": "COc1cccc2c1C(=O)c1c(O)c3c(c(O)c1C2=O)CC(O)(C(C)=O)CC3OC1CC(NCC2(O)OCC(O)C2O)C(O)C(C)O1", "note": "(centres undefined)", "values": [{"measurement": "T/C", "setting": "dose: 3.13 mg/kg/injection, schedule: Q04DX003 (ip), vehicle: water", "result": "103 % of control"}, {"measurement": "T/C", "setting": "dose: 6.25 mg/kg/injection, schedule: Q04DX003 (ip), vehicle: water", "result": "100 % of control"}, {"measurement": "T/C", "setting": "dose: 12.5 mg/kg/injection, schedule: Q04DX003 (ip), vehicle: water", "result": "117 % of control"}, {"measurement": "T/C", "setting": "dose: 25.0 mg/kg/injection, schedule: Q04DX003 (ip), vehicle: water", "result": "112 % of control and 113 % of control"}, {"measurement": "T/C", "setting": "dose: 50.0 mg/kg/injection, schedule: Q04DX003 (ip), vehicle: water", "result": "122 % of control"}, {"measurement": "T/C", "setting": "dose: 100.0 mg/kg/injection, schedule: Q04DX003 (ip), vehicle: water", "result": "182 % of control"}, {"measurement": "T/C", "setting": "dose: 200.0 mg/kg/injection, schedule: Q04DX003 (ip), vehicle: water", "result": "108 % of control"}]}, {"smiles": "O=C1c2ccccc2CCC1Br", "note": "(centres undefined)", "values": [{"measurement": "T/C", "setting": "dose: 1.56 mg/kg/injection, schedule: Q01DX009 (ip), vehicle: DMSO", "result": "113 % of control"}, {"measurement": "T/C", "setting": "dose: 6.25 mg/kg/injection, schedule: Q01DX009 (ip), vehicle: DMSO", "result": "99 % of control and 103 % of control"}, {"measurement": "T/C", "setting": "dose: 12.5 mg/kg/injection, schedule: Q01DX009 (ip), vehicle: DMSO", "result": "102 % of control"}]}, {"smiles": "O=[N+]([O-])c1ccc([S][Pb]([c]2ccccc2)([c]2ccccc2)[c]2ccccc2)cc1", "values": [{"measurement": "T/C", "setting": "dose: 6.25 mg/kg/injection, schedule: Q01DX009 (ip), vehicle: Klucel (hydroxypropylcellulose) (HPC)", "result": "100 % of control"}, {"measurement": "T/C", "setting": "dose: 12.5 mg/kg/injection, schedule: Q01DX009 (ip), vehicle: Klucel (hydroxypropylcellulose) (HPC)", "result": "102 % of control"}, {"measurement": "T/C", "setting": "dose: 25.0 mg/kg/injection, schedule: Q01DX009 (ip), vehicle: Klucel (hydroxypropylcellulose) (HPC)", "result": "89 % of control"}]}, {"smiles": "CC1(C)CN(C(C)(C)C)CN2C1OCC2(C)C", "note": "(centres undefined)", "values": [{"measurement": "T/C", "setting": "dose: 50.0 mg/kg/injection, schedule: Q01DX009 (ip), vehicle: saline with Tween-80", "result": "101 % of control"}, {"measurement": "T/C", "setting": "[1]", "result": "112 % of control"}, {"measurement": "T/C", "setting": "[2]", "result": "112 % of control"}]}, {"smiles": "C(=NCCC[Si]12OCCN(CCO1)CCO2)c1ccco1", "values": [{"measurement": "T/C", "setting": "dose: 50.0 mg/kg/injection, schedule: Q01DX005 (ip), vehicle: Klucel (hydroxypropylcellulose) (HPC)", "result": "113 % of control"}, {"measurement": "T/C", "setting": "dose: 100.0 mg/kg/injection, schedule: Q01DX005 (ip), vehicle: Klucel (hydroxypropylcellulose) (HPC)", "result": "105 % of control"}, {"measurement": "T/C", "setting": "dose: 200.0 mg/kg/injection, schedule: Q01DX005 (ip), vehicle: Klucel (hydroxypropylcellulose) (HPC)", "result": "105 % of control"}]}, {"smiles": "O=C(Oc1c(Br)c(N(C(=O)c2ccccc2)c2ccccc2)c(OC(=O)c2ccccc2)c(Br)c1N(C(=O)c1ccccc1)c1ccccc1)c1ccccc1", "values": [{"measurement": "T/C", "setting": "dose: 50.0 mg/kg/injection, schedule: Q01DX005 (ip), vehicle: saline with Tween-80", "result": "91 % of control"}, {"measurement": "T/C", "setting": "dose: 100.0 mg/kg/injection, schedule: Q01DX005 (ip), vehicle: saline with Tween-80", "result": "95 % of control"}, {"measurement": "T/C", "setting": "dose: 200.0 mg/kg/injection, schedule: Q01DX005 (ip), vehicle: saline with Tween-80", "result": "89 % of control"}]}, {"smiles": "NS(=O)(=O)c1ccc(N2C(=S)N(c3ccccc3)C(=Nc3ccccc3)C2=Nc2ccccc2)cc1", "values": [{"measurement": "T/C", "setting": "dose: 50.0 mg/kg/injection, schedule: Q01DX005 (ip), vehicle: Klucel + Tween-80", "result": "96 % of control"}, {"measurement": "T/C", "setting": "dose: 100.0 mg/kg/injection, schedule: Q01DX005 (ip), vehicle: Klucel + Tween-80", "result": "105 % of control"}, {"measurement": "T/C", "setting": "dose: 200.0 mg/kg/injection, schedule: Q01DX005 (ip), vehicle: Klucel + Tween-80", "result": "89 % of control"}]}, {"smiles": "N#Cc1cn(N(CCO)CCO)c(=O)[nH]c1=O", "values": [{"measurement": "T/C", "setting": "dose: 25.0 mg/kg/injection, schedule: Q01DX005 (ip), vehicle: saline", "result": "105 % of control"}, {"measurement": "T/C", "setting": "dose: 50.0 mg/kg/injection, schedule: Q01DX005 (ip), vehicle: saline", "result": "106 % of control"}, {"measurement": "T/C", "setting": "dose: 100.0 mg/kg/injection, schedule: Q01DX005 (ip), vehicle: saline", "result": "105 % of control"}, {"measurement": "T/C", "setting": "dose: 200.0 mg/kg/injection, schedule: Q01DX005 (ip), vehicle: saline", "result": "103 % of control"}]}, {"smiles": "c1ccc2c(-c3cc(-c4cc(-c5cccc6ccccc56)on4)no3)cccc2c1", "values": [{"measurement": "T/C", "setting": "dose: 60.0 mg/kg/injection, schedule: Q01DX005 (ip), vehicle: saline with Tween-80", "result": "106 % of control"}, {"measurement": "T/C", "setting": "dose: 120.0 mg/kg/injection, schedule: Q01DX005 (ip), vehicle: saline with Tween-80", "result": "97 % of control"}, {"measurement": "T/C", "setting": "dose: 240.0 mg/kg/injection, schedule: Q01DX005 (ip), vehicle: saline with Tween-80", "result": "100 % of control"}]}, {"smiles": "COC(=O)c1ccc(O)c(O)c1", "values": [{"measurement": "T/C", "setting": "[1]", "result": "104 % of control"}, {"measurement": "T/C", "setting": "[2]", "result": "100 % of control"}, {"measurement": "T/C", "setting": "dose: 400.0 mg/kg/injection, schedule: Q01DX009 (ip), vehicle: saline with Tween-80", "result": "100 % of control"}]}, {"smiles": "CSCCn1ccnc1[N+](=O)[O-]", "values": [{"measurement": "T/C", "setting": "dose: 12.5 mg/kg/injection, schedule: Q01DX009 (ip), vehicle: distilled water + Tween-80", "result": "100 % of control"}, {"measurement": "T/C", "setting": "dose: 25.0 mg/kg/injection, schedule: Q01DX009 (ip), vehicle: distilled water + Tween-80", "result": "96 % of control"}, {"measurement": "T/C", "setting": "dose: 50.0 mg/kg/injection, schedule: Q01DX009 (ip), vehicle: distilled water + Tween-80", "result": "100 % of control"}, {"measurement": "T/C", "setting": "dose: 100.0 mg/kg/injection, schedule: Q01DX009 (ip), vehicle: distilled water + Tween-80", "result": "101 % of control"}, {"measurement": "T/C", "setting": "dose: 200.0 mg/kg/injection, schedule: Q01DX009 (ip), vehicle: distilled water + Tween-80", "result": "108 % of control"}]}]}
